Measurements published in patent US20080269161A1, “Compositions and Methods Relating to Mitochondrial Hyperpolarization in Neurological Disease” (priority 2005, published 2008).
“Also recorded” adds a separate entry of the source.

Key:
[1] = system: mitochondrial membrane potential of rat cortical neurons; assay type: cell-based; conditions: neurotoxin alone
Procedure: Curve fits are non-formulaic software interpolations of the data points.
Changes in mitochondrial function that could be associated with the increased vesicular activity were evaluated. Mitochondria generate the energy for synaptic transmission in the form of ATP, and as a byproduct of this oxidative phosphorylation, they are also one of the primary producers of intracellular ROS. Two key mitochondrial parameters were examined in response to Tat and PAF: 1) mitochondrial membrane potential (ΔΨm) [as assessed by mitochondrial uptake of the lipophilic cationic dyes tetramethylrhodamine ethyl or methyl ester (TMRE or TMRM respectively)], and 2) ATP production (as measured by luciferase assay). The electronegative mitochondrial membrane potential provides the driving force for calcium buffering and ATP production by the mitochondria, and as such, ΔΨm is frequently used as an indicator of mitochondrial health and energetic capacity. Moreover, fluctuations in ΔΨm can trigger mitochondrial release of pro-apoptotic factors, an event most frequently associated with a loss of ΔΨm.
Monitoring alterations in ΔΨm with TMRM: In the relevant methods described herein, changes in mitochondrial membrane potential (ΔΨm) in response to Tat or PAF treatment is assessed by TMRM, which must equilibrate across the plasma membrane before entering the mitochondria; and in whole cell applications dye concentration in the mitochondria is dependent on both plasma membrane potential (ΔΨp) and AΨm. At sufficiently low dye concentrations (TMRM =1 nM, i.e. high cell/dye ratio) and normal membrane potentials, ≧95% of the dye is in the mitochondria, and ≦1% in the media, which results in an approximately 100× sensitivity of the dye to ΔΨm over ΔΨp, given equivalent changes in plasma or mitochondrial membrane potential [Rottenberg, H. and S. Wu, Biochim Biophys Acta, 1998. 1404(3): p. 393-40].
For these methods, primary rodent neurons are treated with reagent under normal culture conditions for the indicated time period, followed by removal of the media, 1×2 minute wash in pre-warmed 37° C. HBSS plus 10 mM glucose and 10 mM HEPES (HBSS+), then incubation in HBSS+ with 1 nM TMRE/M. Following equilibration of the dye for 20 minutes to ensure distribution across the mitochondrial membrane, the cells are imaged while remaining in the 1 nM TMRE/M solution, as is necessary for a continued dye equilibrium state. Random field images are taken using an Olympus IX-70 microscope and 40× objective (fluorescent excitation: 545; emission: 610) and Apogee KX32ME CCD camera, and the mean relative fluorescent unit (RFU) value of the neuronal soma and processes (excluding mitochondria deficient regions) is quantified using Scanalytics IPLab software.

hippocampal neurons = test: Dendrite beading and spine loss in hippocampal neurons in vitro; assay type: cell-based, rat; conditions: cPAF 130 nM, 60 hours
Description: (A) cPAF causes dendrite beading and loss of dendritic spines. (A′) Low-magnification images show minimal changes in dendrite morphology and total spine number in control cultures (left). In cPAF-treated cultures (right), dendrite beading (red arrows) is accompanied by spine loss and sprouting of filopodia (green arrowheads) but gross aspects of dendrite structure are preserved. (B) No cells developed dendritic swellings in control cultures, while 55±3% of cPAF-exposed cells beaded. (C) 43±5% of dendritic spines were lost during cPAF exposure, while total spine number was maintained in control cultures.
An additional pathologic consequence of exposure to HIV-1 neurotoxins is an increase in oxidized cellular phospholipids that can bind to and activate the PAF-R [Marathe, G. K., et al., Vascul Pharmacol, 2002. 38(4): p. 193-200]. Both energetic stress and PAF-R signaling have the potential to impair post-synaptic neurotransmission. Thus, a morphologic correlate of dendrite damage in HAD was identified, which is activity-induced dendritic swelling or “beading” in the presence of the HIV neurotoxin cPAF. […]
(3) Primary rat hippocampal neurons (HN). […] Dissociated cells are counted by trypan blue viability assay and plated in cell culture plates at 0.5-0.6×10^5 cells/cm^2, on poly-D-lysine-coated cell culture plastic or sterile glass coverslips. […]

CCCCCCCCCCCCCCCCOC[C@H](COP(=O)([O-])OCC[N+](C)(C)C)OC(=O)NC [PAF, carbamyl-platelet-activating factor]
effect on ΔΨm [1]: dose dependent increases; also recorded: dose-dependent rise
cells with dendrite beading (hippocampal neurons): 55±3%
dendritic spines lost (hippocampal neurons): 43±5%
